Reference: ChEMBL document CHEMBL4507298 (2021)

Experiments:
Details in all cases: Compound concentration 10.0 uM
[1] = target: D(1B) dopamine receptor (Homo sapiens) (UniProt P21918)
[2] = target: Histamine H2 receptor (Homo sapiens) (UniProt P25021)
[3] = target: T1, GABA-A receptor; anion channel (Rattus norvegicus) (UniProt O09028+P15431+P18506+P18508+P19969+P20236+P23574+P23576+P28471+P28473+P30191+P62813+P63079+P63138+Q91ZM7+Q9ES14)
[4] = target: T2, D(4) dopamine receptor (Homo sapiens) (UniProt P21917)
T2 sequence (whole entry): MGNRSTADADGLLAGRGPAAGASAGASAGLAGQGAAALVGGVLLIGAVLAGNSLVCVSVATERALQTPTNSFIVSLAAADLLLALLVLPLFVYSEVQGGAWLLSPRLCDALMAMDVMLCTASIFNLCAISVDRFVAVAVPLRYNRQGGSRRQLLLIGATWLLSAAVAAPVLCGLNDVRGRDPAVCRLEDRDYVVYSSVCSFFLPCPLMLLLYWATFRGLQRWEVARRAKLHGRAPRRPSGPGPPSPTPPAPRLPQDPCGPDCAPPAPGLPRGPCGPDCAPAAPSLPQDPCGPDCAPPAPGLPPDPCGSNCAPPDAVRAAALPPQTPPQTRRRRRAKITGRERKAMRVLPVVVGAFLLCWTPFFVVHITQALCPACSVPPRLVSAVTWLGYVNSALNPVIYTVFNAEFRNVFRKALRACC

[5] = target: T3, Alpha-2B adrenergic receptor (Homo sapiens) (UniProt P18089)
T3 sequence (whole entry): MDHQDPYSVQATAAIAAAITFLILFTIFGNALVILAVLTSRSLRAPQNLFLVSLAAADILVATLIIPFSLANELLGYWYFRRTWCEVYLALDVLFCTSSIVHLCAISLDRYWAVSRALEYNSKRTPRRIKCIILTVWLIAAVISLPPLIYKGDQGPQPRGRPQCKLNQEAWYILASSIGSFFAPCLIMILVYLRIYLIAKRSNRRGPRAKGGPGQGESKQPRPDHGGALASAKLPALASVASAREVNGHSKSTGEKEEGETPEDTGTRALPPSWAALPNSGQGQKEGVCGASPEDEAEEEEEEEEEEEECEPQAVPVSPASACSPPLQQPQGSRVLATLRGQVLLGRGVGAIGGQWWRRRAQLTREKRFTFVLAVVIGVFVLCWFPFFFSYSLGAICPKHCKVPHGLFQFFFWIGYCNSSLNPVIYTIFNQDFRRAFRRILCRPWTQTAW

[6] = target: 5-hydroxytryptamine receptor 2A (Homo sapiens) (UniProt P28223)
Sequence of 5-hydroxytryptamine receptor 2A (Homo sapiens) (P28223 whole entry): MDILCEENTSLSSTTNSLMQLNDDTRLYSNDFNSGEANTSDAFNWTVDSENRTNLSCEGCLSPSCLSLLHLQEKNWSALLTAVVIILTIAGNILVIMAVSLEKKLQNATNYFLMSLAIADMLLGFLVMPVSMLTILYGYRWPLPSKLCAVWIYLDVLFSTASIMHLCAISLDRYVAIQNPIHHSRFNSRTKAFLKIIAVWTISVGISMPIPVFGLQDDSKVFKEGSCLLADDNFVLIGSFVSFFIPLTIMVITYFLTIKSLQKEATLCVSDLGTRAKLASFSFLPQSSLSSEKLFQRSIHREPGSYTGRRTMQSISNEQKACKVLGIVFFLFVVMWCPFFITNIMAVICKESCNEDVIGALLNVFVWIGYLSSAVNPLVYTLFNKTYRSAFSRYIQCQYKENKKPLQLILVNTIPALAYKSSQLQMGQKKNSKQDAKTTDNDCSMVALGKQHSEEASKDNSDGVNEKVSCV

[7] = target: T1, GABA-A receptor; anion channel (Rattus norvegicus); remark: listed apart in the source
[8] = target: T4, Muscarinic acetylcholine receptor M5 (Homo sapiens) (UniProt P08912)
T4 sequence (whole entry): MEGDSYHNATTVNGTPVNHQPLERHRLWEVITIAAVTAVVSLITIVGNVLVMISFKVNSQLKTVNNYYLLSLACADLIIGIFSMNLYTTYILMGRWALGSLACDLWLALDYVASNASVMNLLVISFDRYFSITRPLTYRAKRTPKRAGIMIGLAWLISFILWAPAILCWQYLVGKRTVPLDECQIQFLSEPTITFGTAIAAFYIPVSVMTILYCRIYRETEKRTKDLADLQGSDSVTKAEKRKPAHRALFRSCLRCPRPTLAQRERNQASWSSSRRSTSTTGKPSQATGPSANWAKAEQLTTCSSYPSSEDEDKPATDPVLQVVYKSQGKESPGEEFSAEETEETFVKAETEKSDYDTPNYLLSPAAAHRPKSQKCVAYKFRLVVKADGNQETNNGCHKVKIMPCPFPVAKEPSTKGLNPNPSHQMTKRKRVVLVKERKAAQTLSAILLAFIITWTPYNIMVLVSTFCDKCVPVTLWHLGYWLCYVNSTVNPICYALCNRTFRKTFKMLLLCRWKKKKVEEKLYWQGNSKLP

[9] = target: Kappa-type opioid receptor (Homo sapiens) (UniProt P41145)
Sequence of Kappa-type opioid receptor (Homo sapiens) (P41145 whole entry): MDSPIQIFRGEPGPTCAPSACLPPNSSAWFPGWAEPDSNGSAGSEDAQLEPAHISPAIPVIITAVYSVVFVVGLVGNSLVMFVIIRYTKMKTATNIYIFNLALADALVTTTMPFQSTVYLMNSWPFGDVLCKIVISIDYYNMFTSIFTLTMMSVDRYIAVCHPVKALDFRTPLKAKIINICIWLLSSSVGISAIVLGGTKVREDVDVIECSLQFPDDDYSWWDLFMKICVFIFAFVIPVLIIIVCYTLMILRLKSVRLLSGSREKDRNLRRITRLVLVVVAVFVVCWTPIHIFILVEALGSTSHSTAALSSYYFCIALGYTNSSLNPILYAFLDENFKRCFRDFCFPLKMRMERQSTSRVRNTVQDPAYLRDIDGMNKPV

[10] = target: T5, 5-hydroxytryptamine receptor 3A (Homo sapiens) (UniProt P46098)
T5 sequence (whole entry): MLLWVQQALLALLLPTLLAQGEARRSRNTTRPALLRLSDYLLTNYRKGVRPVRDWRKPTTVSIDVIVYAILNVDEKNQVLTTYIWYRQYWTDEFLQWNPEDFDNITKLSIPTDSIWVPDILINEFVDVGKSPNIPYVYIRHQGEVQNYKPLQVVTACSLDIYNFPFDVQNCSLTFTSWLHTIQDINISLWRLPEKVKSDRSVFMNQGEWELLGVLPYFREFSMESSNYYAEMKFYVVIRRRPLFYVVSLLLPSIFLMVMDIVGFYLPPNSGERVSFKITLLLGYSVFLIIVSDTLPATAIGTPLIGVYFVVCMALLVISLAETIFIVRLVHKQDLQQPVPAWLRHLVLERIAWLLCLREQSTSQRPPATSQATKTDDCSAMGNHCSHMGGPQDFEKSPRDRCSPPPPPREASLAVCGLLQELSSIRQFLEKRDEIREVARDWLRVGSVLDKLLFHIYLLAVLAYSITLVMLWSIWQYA

[11] = target: Sodium-dependent serotonin transporter (Homo sapiens) (UniProt P31645)
Sequence of Sodium-dependent serotonin transporter (Homo sapiens) (P31645 whole entry, looked up): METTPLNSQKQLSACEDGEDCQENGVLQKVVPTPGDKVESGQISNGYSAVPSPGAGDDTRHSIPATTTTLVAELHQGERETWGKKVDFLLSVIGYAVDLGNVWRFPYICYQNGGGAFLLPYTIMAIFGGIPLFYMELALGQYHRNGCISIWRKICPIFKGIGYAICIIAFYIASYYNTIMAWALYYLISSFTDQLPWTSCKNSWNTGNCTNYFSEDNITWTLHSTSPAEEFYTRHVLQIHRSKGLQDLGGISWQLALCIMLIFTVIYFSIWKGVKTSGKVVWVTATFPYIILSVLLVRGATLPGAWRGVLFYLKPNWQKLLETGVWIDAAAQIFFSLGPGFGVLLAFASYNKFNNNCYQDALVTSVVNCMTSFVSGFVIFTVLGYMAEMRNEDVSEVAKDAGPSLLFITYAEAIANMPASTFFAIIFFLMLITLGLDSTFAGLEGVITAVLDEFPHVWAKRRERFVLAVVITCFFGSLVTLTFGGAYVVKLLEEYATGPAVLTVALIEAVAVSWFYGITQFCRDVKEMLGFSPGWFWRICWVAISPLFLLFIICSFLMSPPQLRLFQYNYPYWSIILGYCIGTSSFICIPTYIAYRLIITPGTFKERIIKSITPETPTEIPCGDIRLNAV

[12] = target: Delta-type opioid receptor (Homo sapiens) (UniProt P41143)
Sequence of Delta-type opioid receptor (Homo sapiens) (P41143 whole entry): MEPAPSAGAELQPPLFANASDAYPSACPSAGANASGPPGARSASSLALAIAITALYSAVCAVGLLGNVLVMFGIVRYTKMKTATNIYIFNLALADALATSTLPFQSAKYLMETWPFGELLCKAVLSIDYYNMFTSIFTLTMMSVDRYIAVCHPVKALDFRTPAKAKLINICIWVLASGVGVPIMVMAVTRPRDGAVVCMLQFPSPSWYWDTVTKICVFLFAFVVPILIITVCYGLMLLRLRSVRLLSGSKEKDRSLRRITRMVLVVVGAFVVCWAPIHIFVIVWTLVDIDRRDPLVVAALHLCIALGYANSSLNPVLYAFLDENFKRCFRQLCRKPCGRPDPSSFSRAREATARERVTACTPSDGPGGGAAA

[13] = target: 5-hydroxytryptamine receptor 6 (Homo sapiens) (UniProt P50406)
Sequence of 5-hydroxytryptamine receptor 6 (Homo sapiens) (P50406 whole entry): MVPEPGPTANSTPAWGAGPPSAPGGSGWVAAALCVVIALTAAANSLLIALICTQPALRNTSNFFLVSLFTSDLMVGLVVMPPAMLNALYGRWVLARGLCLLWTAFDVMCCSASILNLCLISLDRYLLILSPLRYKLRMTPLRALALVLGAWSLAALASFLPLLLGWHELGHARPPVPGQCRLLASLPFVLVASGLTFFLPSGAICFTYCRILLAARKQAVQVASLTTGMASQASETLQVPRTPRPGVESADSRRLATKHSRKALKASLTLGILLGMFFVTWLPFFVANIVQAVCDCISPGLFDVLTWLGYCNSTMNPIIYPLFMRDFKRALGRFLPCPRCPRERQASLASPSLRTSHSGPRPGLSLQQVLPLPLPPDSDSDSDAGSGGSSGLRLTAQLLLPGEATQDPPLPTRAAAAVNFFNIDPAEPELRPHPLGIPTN

[14] = target: D(3) dopamine receptor (Homo sapiens) (UniProt P35462)
Sequence of D(3) dopamine receptor (Homo sapiens) (P35462 whole entry): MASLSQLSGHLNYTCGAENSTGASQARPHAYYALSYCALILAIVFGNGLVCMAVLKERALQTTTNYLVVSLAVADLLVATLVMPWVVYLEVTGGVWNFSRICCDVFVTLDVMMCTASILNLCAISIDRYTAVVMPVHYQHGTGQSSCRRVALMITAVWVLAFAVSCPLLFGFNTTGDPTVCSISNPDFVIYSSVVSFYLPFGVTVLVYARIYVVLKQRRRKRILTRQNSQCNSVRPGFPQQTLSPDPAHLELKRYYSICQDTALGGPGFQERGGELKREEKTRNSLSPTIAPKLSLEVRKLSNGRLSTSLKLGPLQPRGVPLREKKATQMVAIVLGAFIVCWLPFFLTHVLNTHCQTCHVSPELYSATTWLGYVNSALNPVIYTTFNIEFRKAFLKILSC

[15] = target: Alpha-1D adrenergic receptor (Homo sapiens) (UniProt P25100)
Sequence of Alpha-1D adrenergic receptor (Homo sapiens) (P25100 whole entry): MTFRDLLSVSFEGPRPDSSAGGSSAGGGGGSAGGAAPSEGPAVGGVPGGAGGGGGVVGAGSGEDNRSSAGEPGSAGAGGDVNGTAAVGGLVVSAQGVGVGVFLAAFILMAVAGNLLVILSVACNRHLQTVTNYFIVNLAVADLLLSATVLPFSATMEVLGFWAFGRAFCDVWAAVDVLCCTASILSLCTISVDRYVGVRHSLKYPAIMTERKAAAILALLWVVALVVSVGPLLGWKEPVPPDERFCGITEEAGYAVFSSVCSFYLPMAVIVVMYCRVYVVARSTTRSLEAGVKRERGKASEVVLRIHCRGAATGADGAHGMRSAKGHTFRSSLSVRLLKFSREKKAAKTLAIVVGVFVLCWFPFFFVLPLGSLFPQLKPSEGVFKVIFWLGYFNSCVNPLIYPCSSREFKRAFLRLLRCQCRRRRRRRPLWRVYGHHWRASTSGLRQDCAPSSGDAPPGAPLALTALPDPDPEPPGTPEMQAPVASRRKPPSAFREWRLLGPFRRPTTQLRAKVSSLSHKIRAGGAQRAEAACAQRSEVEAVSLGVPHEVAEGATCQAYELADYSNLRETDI

[16] = target: 5-hydroxytryptamine receptor 1E (Homo sapiens) (UniProt P28566)
Sequence of 5-hydroxytryptamine receptor 1E (Homo sapiens) (P28566 whole entry): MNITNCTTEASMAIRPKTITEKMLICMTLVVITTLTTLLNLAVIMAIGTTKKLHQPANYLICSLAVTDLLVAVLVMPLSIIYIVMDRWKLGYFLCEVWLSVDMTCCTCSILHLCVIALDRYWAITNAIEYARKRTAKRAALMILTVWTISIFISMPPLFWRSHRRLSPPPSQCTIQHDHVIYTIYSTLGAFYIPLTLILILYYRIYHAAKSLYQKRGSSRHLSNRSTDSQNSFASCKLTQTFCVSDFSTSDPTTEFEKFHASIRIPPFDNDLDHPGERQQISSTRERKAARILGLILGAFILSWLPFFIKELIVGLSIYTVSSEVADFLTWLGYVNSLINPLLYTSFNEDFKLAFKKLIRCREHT

[17] = target: Alpha-1A adrenergic receptor (Homo sapiens) (UniProt P35348)
Sequence of Alpha-1A adrenergic receptor (Homo sapiens) (P35348 whole entry): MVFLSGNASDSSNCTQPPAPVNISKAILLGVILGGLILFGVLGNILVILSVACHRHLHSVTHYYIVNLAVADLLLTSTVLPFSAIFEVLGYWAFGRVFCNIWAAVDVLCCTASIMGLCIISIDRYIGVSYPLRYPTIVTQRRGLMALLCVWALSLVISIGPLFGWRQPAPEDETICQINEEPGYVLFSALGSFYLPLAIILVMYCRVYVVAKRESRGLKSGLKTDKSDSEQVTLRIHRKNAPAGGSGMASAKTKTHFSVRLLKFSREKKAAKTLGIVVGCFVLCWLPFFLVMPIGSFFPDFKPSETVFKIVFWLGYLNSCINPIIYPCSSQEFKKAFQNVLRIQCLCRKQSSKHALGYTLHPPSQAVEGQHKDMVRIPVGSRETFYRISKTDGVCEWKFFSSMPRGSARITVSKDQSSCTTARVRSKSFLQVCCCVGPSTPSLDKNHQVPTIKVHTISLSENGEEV

Measured: inhibition

Sequence of D(1B) dopamine receptor (Homo sapiens) (P21918 whole entry): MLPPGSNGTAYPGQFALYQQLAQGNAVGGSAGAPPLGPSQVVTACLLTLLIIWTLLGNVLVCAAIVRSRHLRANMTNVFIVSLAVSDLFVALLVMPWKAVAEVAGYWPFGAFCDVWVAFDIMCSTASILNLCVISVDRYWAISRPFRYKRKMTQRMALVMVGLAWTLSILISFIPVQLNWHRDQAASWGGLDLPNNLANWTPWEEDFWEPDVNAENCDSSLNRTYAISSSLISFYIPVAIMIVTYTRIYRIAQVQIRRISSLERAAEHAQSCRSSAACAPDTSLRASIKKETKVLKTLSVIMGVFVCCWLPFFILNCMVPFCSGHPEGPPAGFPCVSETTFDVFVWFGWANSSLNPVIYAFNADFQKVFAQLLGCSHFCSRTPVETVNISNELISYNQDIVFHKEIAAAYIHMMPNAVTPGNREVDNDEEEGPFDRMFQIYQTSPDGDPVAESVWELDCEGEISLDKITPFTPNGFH
Sequence of Histamine H2 receptor (Homo sapiens) (P25021 whole entry): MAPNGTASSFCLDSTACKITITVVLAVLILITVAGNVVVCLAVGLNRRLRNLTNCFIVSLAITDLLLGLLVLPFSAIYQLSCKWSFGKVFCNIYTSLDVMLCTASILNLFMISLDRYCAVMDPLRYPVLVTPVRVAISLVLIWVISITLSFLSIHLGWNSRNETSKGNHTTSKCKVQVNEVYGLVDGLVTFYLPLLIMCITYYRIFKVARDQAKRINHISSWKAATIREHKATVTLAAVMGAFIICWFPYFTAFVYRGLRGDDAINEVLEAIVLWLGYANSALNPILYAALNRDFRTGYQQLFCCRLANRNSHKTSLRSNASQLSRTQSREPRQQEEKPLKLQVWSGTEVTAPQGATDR

O=C(c1ccc(F)cc1)N1CC(COc2ccc(Br)cc2)(C(=O)O)C1 [PF-04475866]
inactive: [1] 2.2% | [2] 15.7% | [3] -8.88% | [4] -7.87% | [5] 12.1% | [6] -2.23% | [7] -5.33% | [8] -0.33% | [9] -9.45% | [10] 16.6% | [11] -6.29% | [12] -5.22% | [13] -2.64% | [14] 3.89% | [15] 5% | [16] 12.2% | [17] -4.09%

COc1ccc2cc(OCC3(C(=O)O)CN(C(=O)c4ccc(F)cc4)C3)ccc2c1 [PF-04418948]
inactive: [1] -2.51% | [2] 3% | [3] -1.97% | [4] 8.76% | [5] 9.24% | [6] 6.25% | [7] 18.7% | [8] -7.44% | [9] 16.4% | [10] 0.08% | [11] -6.83% | [12] 5.07% | [13] -6.47% | [14] 33% | [15] -3.76% | [16] 11% | [17] 2.52%
